Test results as given in patent US10106526B2, “Inhibitors of cyclin-dependent kinase 7 (CDK7)” (SYROS PHARMACEUTICALS, INC., priority 2014, dated 2018).
Structures can show the parent of a compound that is named as a salt.

Legend:
CDK7 = target: T1, CDK7 (Homo sapiens, UniProt P50613); test: CDK7 kinase activity, Adapta kinase assay (Life Technologies); format: biochemical; conditions: Adapta kinase assay at Life Technologies; 10 μM down to 0.514 nM, 3-fold serial dilutions; read-out: CDK7 Inhibition (IC50)
T1 construct: purchased Life Technologies (Adapta kinase assay service)
Description: Compounds of the invention were assayed for CDK7 activity at Life Technologies™ (Grand Island, N.Y.) using their commercially available Adapta® kinase assay services. Compounds were tested at concentrations ranging from 10 μM down to 0.514 nM in a series of 3-fold serial dilutions. Details of these assays, including substrates used, are available on the Life Technologies web site (http://www.lifetechnologies.com/us/en/home/life-science/drug-discovery/target-and-lead-identification-and-validation/kinasebiology/kinase-activity-assays.html).

Jurkat cells = test: Inhibition of proliferation of Jurkat cells (CellTiter-Glo, 72 hour); format: cell-based, human; conditions: 10 μM to 316 pM
Description: Jurkat cells are a cell line established from a human T cell leukemia. Representative compounds of the invention were tested at different concentrations (from 10 μM to 316 pM; 0.5 log serial dilutions) for their ability to inhibit the proliferation of Jurkat cells. Known CDK inhibitors flavopiridol and triptolide were used as positive controls. Cells were grown in RPMI 1640+10% FBS+1% Glutamax. The cells were supplemented with FBS (Life Technologies) and 100 U·mL^− penicillin, 100 μg·mL^− streptomycin (Invitrogen) and cultured at 37° C. in a humidified chamber in the presence of 5% CO2. Proliferation assays were conducted over a 72 hour time period. CellTiter-Glo® (Promega Corporation, Madison, Wis. USA) was used to assess the anti-proliferative effects of the compounds following manufacturer's directions and utilizing the reagents supplied with the CellTiter-Glo® kit. In this table, “A” represents an IC50 of less than 500 nM; “B” an IC50 of between 500 nM and 5 μM; and “C” an IC50 of greater than 5 μM.

A673 cells = test: Inhibition of proliferation of A673 cells (CyQUANT, 72 hour); format: cell-based, human; conditions: Homo sapiens, 72 hour proliferation
Description: A673 cells are a cell line derived from human muscle Ewing's sarcoma. Representative compounds of the invention were tested at different concentrations (from 4 μM to 126.4 pM; 0.5 log serial dilutions) for their ability to inhibit the proliferation of A673 cells. Known CDK inhibitors flavopiridol and triptolide were used as positive controls. Cells were grown in Dulbecco's Modified Eagle's Medium, +10% FBS+1 mM Sodium Pyruvate. The cells were cultured at 37° C. in a humidified chamber in the presence of 5% CO2. Proliferation assays were conducted over a 72 hour time period. CyQUANT® (Life Technologies, Chicago, Ill. USA) was used to assess the anti-proliferative effects of the compounds following manufacturer's directions and utilizing the reagents supplied with the CyQUANT® kit. In this table, “A” represents an IC50 of less than 500 nM; “B” an IC50 of between 500 nM and 5 μM; and “C” an IC50 of greater than 5 μM.

T1 sequence (P50613 whole entry): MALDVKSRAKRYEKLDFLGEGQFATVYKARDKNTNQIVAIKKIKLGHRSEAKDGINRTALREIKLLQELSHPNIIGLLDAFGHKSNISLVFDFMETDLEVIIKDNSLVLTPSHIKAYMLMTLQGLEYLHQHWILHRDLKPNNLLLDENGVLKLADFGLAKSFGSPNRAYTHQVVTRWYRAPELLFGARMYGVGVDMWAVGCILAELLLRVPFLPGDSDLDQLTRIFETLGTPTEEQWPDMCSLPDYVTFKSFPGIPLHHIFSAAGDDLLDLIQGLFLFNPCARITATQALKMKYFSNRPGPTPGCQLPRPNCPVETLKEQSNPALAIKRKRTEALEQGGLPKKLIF
T1 sequence (P51946 whole entry partner): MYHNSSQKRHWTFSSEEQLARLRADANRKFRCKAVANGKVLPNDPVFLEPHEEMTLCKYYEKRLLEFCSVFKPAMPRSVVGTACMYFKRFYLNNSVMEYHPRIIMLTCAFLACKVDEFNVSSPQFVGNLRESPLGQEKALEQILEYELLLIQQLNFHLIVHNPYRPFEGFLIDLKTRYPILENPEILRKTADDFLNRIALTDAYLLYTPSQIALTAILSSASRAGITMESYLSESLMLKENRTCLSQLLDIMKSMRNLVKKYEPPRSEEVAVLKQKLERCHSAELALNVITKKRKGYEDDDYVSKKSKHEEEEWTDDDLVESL
T1 sequence (P51948 whole entry partner): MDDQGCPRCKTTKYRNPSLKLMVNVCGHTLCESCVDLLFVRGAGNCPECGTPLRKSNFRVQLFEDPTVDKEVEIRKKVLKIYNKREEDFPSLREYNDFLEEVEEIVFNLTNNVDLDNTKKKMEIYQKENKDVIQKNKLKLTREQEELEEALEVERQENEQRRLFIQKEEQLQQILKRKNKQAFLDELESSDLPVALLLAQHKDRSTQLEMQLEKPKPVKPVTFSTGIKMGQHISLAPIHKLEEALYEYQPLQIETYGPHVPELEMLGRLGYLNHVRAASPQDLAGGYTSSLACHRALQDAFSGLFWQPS

Row | IC50 (CDK7) | IC50 (Jurkat cells; Homo sapiens) | IC50 (Jurkat cells) | SMILES | IC50 (A673 cells)
1 | 100 to 1000 nM | – | < 500 nM | CN(C)CC=CC(=O)N1CCCC(CNC2CCC(Nc3ncc(Cl)c(-c4c[nH]c5ccccc45)n3)CC2)C1 (racemic) [compound 194] | –
2 | < 100 nM | – | 500 to 5000 nM | CN(C)CC=CC(=O)N1CCC(CNC2CCC(Nc3ncc(Cl)c(-c4c[nH]c5ccccc45)n3)CC2)CC1 (stereo not shown) [compound 197] | –
3 | – | 500 to 5000 nM | – | Nc1ccc(C(=O)Nc2cccc(Nc3ncc(Cl)c(-c4c[nH]c5ccccc45)n3)c2)cn1 [Compound 1024, 6-amino-N-(3-(5-chloro-4-(1H-indol-3-yl)pyrimidin-2-ylamino)phenyl)nicotinamide] | –
4 | – | 500 to 5000 nM | – | Nc1ccc(C(=O)N[C@H]2CCC[C@@H](Nc3ncc(Cl)c(-c4c[nH]c5ccccc45)n3)C2)nn1 [Compound 1027, 6-amino-N-((1S,3R)-3-(5-chloro-4-(1H-indol-3-yl)pyrimidin-2-ylamino)cyclohexyl)pyridazine-3-carboxamide] | –
5 | < 100 nM | – | 500 to 5000 nM | CN(C)CC=CC(=O)N1CCC(CNC2CCC(Nc3ncc(Cl)c(-c4c[nH]c5ccccc45)n3)CC2)CC1 (stereo not shown) [compound 196] | –
6 | < 100 nM | – | 500 to 5000 nM | O=C(Nc1cccc(Nc2ncc(Cl)c(-c3c[nH]c4ccccc34)n2)c1)C1CCCNC1 (stereo not shown) [compound 1003] | –
7 | – | 500 to 5000 nM | – | Nc1nc(C(=O)N[C@H]2CCC[C@@H](Nc3ncc(Cl)c(-c4c[nH]c5ccccc45)n3)C2)cs1 [Compound 1026, 2-amino-N-((1S,3R)-3-(5-chloro-4-(1H-indol-3-yl)pyrimidin-2-ylamino)cyclohexyl)thiazole-4-carboxamide] | –
8 | < 100 nM | – | – | NCC(F)(F)C(=O)N[C@H]1CCC[C@@H](Nc2ncc(Cl)c(-c3c[nH]c4ccccc34)n2)C1 [Compound 1010, 3-amino-N-((1S,3R)-3-(5-chloro-4-(1H-indol-3-yl)pyrimidin-2-ylamino)cyclohexyl)-2,2-difluoropropanamide] | –
9 | – | 500 to 5000 nM | – | NCCc1cc2ccc(Nc3ncc(Cl)c(-c4c[nH]c5ccccc45)n3)cc2[nH]1 [Compound 1028, 2-(2-aminoethyl)-N-(5-chloro-4-(1H-indol-3-yl)pyrimidin-2-yl)-1H-indol-6-amine.HCl] | –
10 | – | – | 500 to 5000 nM | CN(C)CCCC(=O)Nc1ccc(C(=O)Nc2cccc(Nc3ncc(Cl)c(-c4c[nH]c5ccccc45)n3)c2)nc1 [compound 1023] | –
11 | < 100 nM | – | – | N#Cc1cnc(N[C@@H]2CCC[C@H](NC(=O)c3ccc(N)cn3)C2)nc1-c1c[nH]c2ccccc12 [Compound 1009, 5-amino-N-((1S,3R)-3-(5-cyano-4-(1H-indol-3-yl)pyrimidin-2-ylamino)cyclohexyl)picolinamide] | –
12 | – | 500 to 5000 nM | – | CN(C)CCCC(=O)NCCc1cc2ccc(Nc3ncc(Cl)c(-c4c[nH]c5ccccc45)n3)cc2[nH]1 [Compound 1029, N-(2-(6-(5-chloro-4-(1H-indol-3-yl)pyrimidin-2-ylamino)-1H-indol-2-yl)ethyl)-4-(dimethylamino)butanamide] | –
13 | – | 500 to 5000 nM | – | Nc1ccc(C(=O)N[C@H]2CCC[C@@H](Nc3ncc(Cl)c(-c4c[nH]c5ccccc45)n3)C2)cn1 [Compound 1025, 6-amino-N-((1S,3R)-3-(5-chloro-4-(1H-indol-3-yl)pyrimidin-2-ylamino)cyclohexyl)nicotinamide] | –

The next lines start with the compound.

Row | SMILES | IC50 (CDK7) | IC50 (Jurkat cells; Homo sapiens) | IC50 (Jurkat cells) | IC50 (A673 cells)
14 | CN(C)C/C=C/C(=O)N1CCC[C@@H](C(=O)Nc2cccc(Nc3ncc(Cl)c(-c4c[nH]c5ccccc45)n3)c2)C1 [Compound 103, (3R,E)-N-(3-(5-chloro-4-(1H-indol-3-yl)pyrimidin-2-ylamino)phenyl)-1-(4-(dimethylamino)but-2-enoyl)piperidine-3-carboxamide] | < 100 nM | 500 to 5000 nM | – | –
15 | CN(C)C/C=C/C(=O)NCCc1cc2ccc(Nc3ncc(Cl)c(-c4c[nH]c5ccccc45)n3)cc2[nH]1 [Compound 175, (E)-N-(2-(6-(5-chloro-4-(1H-indol-3-yl)pyrimidin-2-ylamino)-1H-indol-2-yl)ethyl)-4-(dimethylamino)but-2-enamide] | < 100 nM | < 500 nM | – | –
16 | NCCCCC(=O)N1CC[C@@H](Nc2ncc(Cl)c(-c3c[nH]c4ccccc34)n2)C1 [Compound 1000, 5-((R)-3-(5-chloro-4-(1H-indol-3-yl)pyrimidin-2-ylamino)pyrrolidin-1-yl)-5-oxopentan-1-aminium chloride] | < 100 nM | 500 to 5000 nM | – | –
17 | C=CC(=O)N(C)[C@H]1CCC[C@@H](Nc2ncc(Cl)c(-c3c[nH]c4ccccc34)n2)C1 [Compound 171, N-((1S,3R)-3-(5-chloro-4-(1H-indol-3-yl)pyrimidin-2-ylamino)cyclohexyl)-N-methylacrylamide] | < 100 nM | < 500 nM | – | –
18 | Nc1ccc(C(=O)N[C@H]2CCC[C@@H](Nc3ncc(Cl)c(-c4c[nH]c5ccccc45)n3)C2)nc1 [Compound 1007, 5-amino-N-((1S,3R)-3-(5-chloro-4-(1H-indol-3-yl)pyrimidin-2-ylamino)cyclohexyl)picolinamide] | < 100 nM | 500 to 5000 nM | – | –
19 | C=CC(=O)NC12CC(C(=O)Nc3cccc(Nc4ncc(Cl)c(-c5c[nH]c6ccccc56)n4)c3)(C1)C2 (racemic) [Compound 108, N-(3-{[5-chloro-4-(1H-indol-3-yl)pyrimidin-2-yl]amino}phenyl)-3-(prop-2-enamido)bicyclo[1.1.1]pentane-1-carboxamide] | > 1000 nM | – | – | –
20 | C=CC(=O)N1CCN(C(=O)N[C@H]2CCC[C@@H](Nc3ncc(Cl)c(-c4c[nH]c5ccccc45)n3)C2)CC1 [Compound 201, 4-Acryloyl-N-((1S,3R)-3-(5-chloro-4-(1H-indol-3-yl)pyrimidin-2-ylamino)cyclohexyl)piperazine-1-carboxamide] | < 100 nM | 500 to 5000 nM | – | –
21 | CN(C)C/C=C/C(=O)N[C@H]1CC[C@@H](C(=O)Nc2cccc(Nc3ncc(Cl)c(-c4c[nH]c5ccccc45)n3)c2)CC1 [Compound 101, (Cis,E)-N-(3-(5-chloro-4-(1H-indol-3-yl)pyrimidin-2-ylamino)phenyl)-4-(4-(dimethylamino)but-2-enamido)cyclohexanecarboxamide] | < 100 nM | > 5000 nM | – | –
22 | C=CC(=O)N[C@H]1CCC[C@@H](Nc2ncc(Cl)c(-c3c[nH]c4ccccc34)n2)C1 [Compound 170, N-((1S,3R)-3-(5-chloro-4-(1H-indol-3-yl)pyrimidin-2-ylamino)cyclohexyl)acrylamide] | < 100 nM | 500 to 5000 nM | – | –
23 | CN(C)C/C=C/C(=O)NCC(F)(F)C(=O)N[C@H]1CCC[C@@H](Nc2ncc(Cl)c(-c3c[nH]c4ccccc34)n2)C1 [Compound 111, (E)-N-(3-((1S,3R)-3-(5-chloro-4-(1H-indol-3-yl)pyrimidin-2-ylamino)cyclohexlamino)-2,2-difluoro-3-oxopropyl)-4-(dimethylamino)but-2-enamide] | < 100 nM | < 500 nM | – | –
24 | O=C(Nc1cccc(Nc2ncc(Cl)c(-c3c[nH]c4ccccc34)n2)c1)[C@H]1CCCNC1 [Compound 1005, (3S)—N-(3-(5-chloro-4-(1H-indol-3-yl)pyrimidin-2-ylamino)phenyl)piperidine-3-carboxamide] | < 100 nM | 500 to 5000 nM | – | –
25 | O=C(Nc1cccc(Nc2ncc(Cl)c(-c3c[nH]c4ccccc34)n2)c1)[C@@H]1CCCNC1 [Compound 1004, (3R)—N-(3-(5-chloro-4-(1H-indol-3-yl)pyrimidin-2-ylamino)phenyl)piperidine-3-carboxamide] | < 100 nM | 500 to 5000 nM | – | –
26 | O=C(N[C@H]1CCC[C@@H](Nc2ncc(Cl)c(-c3c[nH]c4ccccc34)n2)C1)C1CCN(C(=O)/C=C/CN2CCOCC2)CC1 [Compound 202-1, N-((1S,3R)-3-((5-chloro-4-(1H-indol-3-yl)pyrimidin-2-yl)amino)cyclohexyl)-1-((E)-4-morpholinobut-2-enoyl)piperidine-4-carboxamide] | > 1000 nM | 500 to 5000 nM | – | –
27 | N[C@H]1CC[C@H](C(=O)Nc2cccc(Nc3ncc(Cl)c(-c4c[nH]c5ccccc45)n3)c2)CC1 [Compound 1002, trans-4-amino-N-(3-(5-chloro-4-(1H-indol-3-yl)pyrimidin-2-ylamino)phenyl) cyclohexanecarboxamide.HCl] | < 100 nM | 500 to 5000 nM | – | –
28 | C=CC(=O)N1CCN(C[C@H]2CCC[C@@H](Nc3ncc(Cl)c(-c4c[nH]c5ccccc45)n3)C2)CC1 [Compound 129, 1-(4-(((1S,3R)-3-((5-chloro-4-(1H-indol-3-yl)pyrimidin-2-yl)amino)cyclohexyl)methyl)piperazin-1-yl)prop-2-en-1-One] | < 100 nM | – | – | < 500 nM
